# Measurements reported in paper PMC12010937, “Evaluation of FXR Activity in Pollutants Identified in Sewage Sludge and Subsequent in Vitro and in Vivo Characterization of Metabolic Effects of Triphenyl Phosphate” (Environmental Health Perspectives, 2025).
# Where “and” joins values, the source holds several entries; their conditions need not be identical. Equal values may be shown once. Read-outs that look alike come from different tables or passages of the source.
# Assays:
# [1] = Analysis of TPHP in mice (serum, liver, ileum) by UPLC-MS/MS; assay type: in vivo, C57BL/6N mice; conditions: mouse
# Method: (§1) Male C57BL/6N mice (8 wk of age) were purchased from Beijing Vital River Laboratory Inc. and acclimated to the environment for 2 wk before they were used for experiments. The environment was maintained at 22°C, in a 12-h light/dark cycle with 50%–60% relative humidity and fed standard chow diets. Because the male mice are more sensitive to metabolic disease than female mice and the estrous cycle of female mice may induce variability to the metabolic phenotypes,[50] only male mice were used in this study. Animals were randomly assigned to control or TPHP treatment groups (five mice per group). Mice were exposed to corn oil (control) purchased from Sigma-Aldrich (C8267) or TPHP (dissolved in corn oil) at 10mg/kg or 50mg/kg body weight (BW) by daily oral gavage for 35 d. The administered volume was 5mL/kg BW. The TPHP corn oil solutions for administration were prepared by dissolving the TPHP in corn oil, and the solutions were stored at −20°C and freshly prepared each week. BW was measured every other day during the dosing period. At the end of experiments, the mice were anesthetized with isoflurane, then blood was collected from the retro-orbital sinus via orbital puncture, and then the mice were euthanized by cervical dislocation. The liver was isolated, weighted, and divided into three fractions: one fraction was fixed with 4% neutral-buffered formalin for Oil Red staining; another fraction was frozen in liquid nitrogen and stored at −80°C for the BA targeted analysis, lipidomic analysis, and qPCR analysis; the remaining fraction was embedded with 3% carboxymethylcellulose (CMC) for MSI analysis. The ileum was also isolated, weighted, and stored at −80°C for the BA targeted analysis and qRT-PCR analysis. Cecal contents were collected from the cecum of mice for the 16S rRNA gene sequencing analysis. Animal study protocols were approved by the Animal Care and Use Committee of Peking University (approval number: Urban-WanY-1).
# Samples of serum ( 100μL ) and freeze-dried liver ( 50mg ) and ileum tissues ( 10mg ) were spiked with 10μL of 100 ng/mL TPHP- d15 (CDAA-412134D15; ANPEL) and extracted with 2mL of ethyl acetate for 10 min on an orbital shaker. After centrifuging at 4,000×g for 10 min, the supernatants were transferred to glass tubes. The extraction process was performed twice, and the supernatants were combined, concentrated to near dryness under a gentle stream of nitrogen, and reconstituted in 1mL of n -hexane. Then, the extracts were loaded on a Sep-Pak Aminopropyl ( NH2 ) cartridge (6cc, 500mg; Waters) preconditioned with 6mL of dichloromethane, 6mL of dichloromethane/n-hexane (1:4, v/v), and 6mL of n -hexane. After being rinsed with 6mL of n -hexane and 6mL of dichloromethane/n-hexane (1:4, v/v), the target analytes were eluted with 3mL of dichloromethane. The eluates were dried under a gentle stream of nitrogen and reconstituted in 100μL of methanol.
# Analysis of TPHP was performed on a Waters Xevo TQ-XS Triple Quadrupole mass spectrometer coupled with the Waters ACQUITY UPLC I-Class System. An InfinityLab Poroshell C18 column ( 100×2.1mm , 1.9μm ) was used. The injection volume was 5μL . Ultrapure water (0.1% formic acid) (A) and acetonitrile (B) were used as the mobile phases. The elution gradient was performed as follows: 0–3 min, 50% B; 3–6 min, 50%−70% B; 6–6.2 min, 70%−100% B; 6.2–8.5 min, 100%−100% B; 8.5–8.6 min, 100%−50% B; 8.6–10 min, 50% B. The rate of flow was 0.3mL/min . The column temperature was maintained at 40°C. The mass spectrometer was equipped with an ESI source and operated in multiple reaction monitoring (MRM) and positive ion mode. A capillary voltage of 3.0 kV , a source temperature of 150°C, and a desolvation temperature of 500°C were used. Desolvation gas and the cone gas flow were set as 1,200 liters/h and 150 liters/h , respectively, and the collision gas was 0.15mL/min . […] The matrix effects were 114.9±4.3% and 118.4±0.5% for the serum and tissues, respectively.
# [2] = tested on: FXR, PXR and PPARγ target genes in liver; experiment: qPCR of genes in mouse liver; assay type: in vivo, C57BL/6N mice
# Method: as §1
# Total RNA was extracted from cells or mice tissues (liver and ileum) using the Total RNA kit (Tiangen Biotech), and concentration and quality of the RNA were determined using a SMA4000 Nanodrop spectrophotometer (Merinton). Then, the RNA was reverse transcribed into cDNA by HiScript III RT SuperMix for qPCR (Vazyme). In addition, qPCR was performed in the Mx3005P real-time PCR system (Agilent Technologies) with the ChamQ SYBR qPCR Master Mix Kit (Vazyme). Reactions were carried out for 5 min at 95°C, followed by 40 cycles of two-step PCR for 10 s at 95°C and 30 s at 60°C. The relative RNA expression levels of the target genes were normalized to GAPDH using the 2^−ΔΔCt method.
compound,measurement,setting,value
"O=P(Oc1ccccc1)(Oc1ccccc1)Oc1ccccc1 [TPHP, triphenyl phosphate]",concentration at 35 d,"[1]; male, C57BL/6N, ileum, TPHP-H: 50 mg/kg daily oral gavage 35 d, read-out: TPHP concentration in ileum",13.2 ± 0.91 ng/g
same,concentration at 35 d,"[1]; male, C57BL/6N, ileum, TPHP-L: 10 mg/kg daily oral gavage 35 d, read-out: TPHP concentration in ileum",7.24 ± 1.33 ng/g
same,concentration at 35 d,"[1]; male, C57BL/6N, liver, TPHP-H: 50 mg/kg daily oral gavage 35 d, read-out: TPHP concentration in liver",12.9 ± 3.31 ng/g
same,concentration at 35 d,"[1]; male, C57BL/6N, liver, TPHP-L: 10 mg/kg daily oral gavage 35 d, read-out: TPHP concentration in liver",5.33 ± 1.91 ng/g
same,concentration at 35 d,"[1]; serum, TPHP-H: 50 mg/kg daily oral gavage 35 d, male C57BL/6N mice, read-out: TPHP concentration in serum",0.79 ± 0.36 ng/mL
same,concentration at 35 d,"[1]; serum, TPHP-L: 10 mg/kg daily oral gavage 35 d, male C57BL/6N mice, read-out: TPHP concentration in serum",0.32 ± 0.03 ng/mL
same,Relative mRNA expression of Acc1 in liver,"[2]; TPHP-H: 50 mg/kg, 35 d",1.30 fold changes and 1.85 fold changes and 1.75 fold changes
same,Relative mRNA expression of Acly in liver,"[2]; TPHP-H: 50 mg/kg, 35 d",1.31 fold changes and 1.49 fold changes and 1.68 fold changes
same,Relative mRNA expression of Bsep in liver,"[2]; TPHP-H: 50 mg/kg, 35 d",0.59 fold changes and 0.34 fold changes and 0.54 fold changes
same,Relative mRNA expression of Cd36 in liver,"[2]; TPHP-H: 50 mg/kg, 35 d",0.97 fold changes and 1.09 fold changes and 0.65 fold changes
same,Relative mRNA expression of Cpt1a in liver,"[2]; TPHP-H: 50 mg/kg, 35 d",0.75 fold changes and 0.89 fold changes and 1.31 fold changes
same,Relative mRNA expression of Cyp2b10 in liver,"[2]; TPHP-H: 50 mg/kg, 35 d",1.32 fold changes and 0.97 fold changes and 0.68 fold changes
same,Relative mRNA expression of Cyp3a11 in liver,"[2]; TPHP-H: 50 mg/kg, 35 d",0.93 fold changes and 0.74 fold changes and 0.82 fold changes
same,Relative mRNA expression of Cyp7a1 in liver,"[2]; TPHP-H: 50 mg/kg, 35 d",2.89 fold changes and 2.77 fold changes and 3.66 fold changes
same,Relative mRNA expression of Cyp7b1 in liver,"[2]; TPHP-H: 50 mg/kg, 35 d",1.54 fold changes and 0.80 fold changes and 0.81 fold changes
same,Relative mRNA expression of Cyp8b1 in liver,"[2]; TPHP-H: 50 mg/kg, 35 d",1.26 fold changes and 1.33 fold changes and 0.86 fold changes
same,Relative mRNA expression of Cyp27a1 in liver,"[2]; TPHP-H: 50 mg/kg, 35 d",0.93 fold changes and 1.23 fold changes and 1.03 fold changes
same,Relative mRNA expression of Dgat2 in liver,"[2]; TPHP-H: 50 mg/kg, 35 d",1.67 fold changes and 1.99 fold changes and 1.63 fold changes
same,Relative mRNA expression of Fae in liver,"[2]; TPHP-H: 50 mg/kg, 35 d",1.30 fold changes and 0.87 fold changes and 0.66 fold changes
same,Relative mRNA expression of Hmgcs2 in liver,"[2]; TPHP-H: 50 mg/kg, 35 d",0.85 fold changes and 0.69 fold changes and 1.21 fold changes
same,Relative mRNA expression of Mdr3 in liver,"[2]; TPHP-H: 50 mg/kg, 35 d",0.80 fold changes and 0.96 fold changes and 0.74 fold changes
same,Relative mRNA expression of Mrp2 in liver,"[2]; TPHP-H: 50 mg/kg, 35 d",0.83 fold changes and 0.55 fold changes and 0.76 fold changes
same,Relative mRNA expression of Mrp3 in liver,"[2]; TPHP-H: 50 mg/kg, 35 d",1.11 fold changes and 0.88 fold changes and 0.87 fold changes
same,Relative mRNA expression of Mrp4 in liver,"[2]; TPHP-H: 50 mg/kg, 35 d",0.96 fold changes and 0.80 fold changes and 0.67 fold changes
same,Relative mRNA expression of Ntcp in liver,"[2]; TPHP-H: 50 mg/kg, 35 d",1.19 fold changes and 1.58 fold changes and 1.51 fold changes
same,Relative mRNA expression of Scd1 in liver,"[2]; TPHP-H: 50 mg/kg, 35 d",0.43 fold changes and 0.64 fold changes and 0.58 fold changes
same,Relative mRNA expression of Srebp1c in liver,"[2]; TPHP-H: 50 mg/kg, 35 d",2.82 fold changes and 2.12 fold changes and 2.38 fold changes
same,Relative mRNA expression of Acc1 in liver,"[2]; TPHP-L: 10 mg/kg, 35 d",1.60 fold changes and 1.11 fold changes and 0.88 fold changes
same,Relative mRNA expression of Acly in liver,"[2]; TPHP-L: 10 mg/kg, 35 d",1.63 fold changes and 1.57 fold changes and 1.51 fold changes
same,Relative mRNA expression of Bsep in liver,"[2]; TPHP-L: 10 mg/kg, 35 d",0.72 fold changes and 0.48 fold changes and 0.41 fold changes
same,Relative mRNA expression of Cd36 in liver,"[2]; TPHP-L: 10 mg/kg, 35 d",1.18 fold changes and 0.78 fold changes and 1.04 fold changes
same,Relative mRNA expression of Cpt1a in liver,"[2]; TPHP-L: 10 mg/kg, 35 d",0.92 fold changes and 1.04 fold changes and 0.99 fold changes
same,Relative mRNA expression of Cyp3a11 in liver,"[2]; TPHP-L: 10 mg/kg, 35 d",1.21 fold changes and 0.78 fold changes and 0.67 fold changes
same,Relative mRNA expression of Cyp7b1 in liver,"[2]; TPHP-L: 10 mg/kg, 35 d",0.65 fold changes and 1.07 fold changes and 0.98 fold changes
same,Relative mRNA expression of Cyp8b1 in liver,"[2]; TPHP-L: 10 mg/kg, 35 d",1.44 fold changes and 1.13 fold changes and 0.80 fold changes
same,Relative mRNA expression of Cyp27a1 in liver,"[2]; TPHP-L: 10 mg/kg, 35 d",1.02 fold changes and 1.04 fold changes and 0.92 fold changes
same,Relative mRNA expression of Dgat2 in liver,"[2]; TPHP-L: 10 mg/kg, 35 d",1.22 fold changes and 1.92 fold changes and 1.34 fold changes
same,Relative mRNA expression of Fae in liver,"[2]; TPHP-L: 10 mg/kg, 35 d",1.41 fold changes and 0.87 fold changes and 0.80 fold changes
same,Relative mRNA expression of Hmgcs2 in liver,"[2]; TPHP-L: 10 mg/kg, 35 d",0.83 fold changes and 1.02 fold changes and 0.93 fold changes
same,Relative mRNA expression of Mdr3 in liver,"[2]; TPHP-L: 10 mg/kg, 35 d",1.09 fold changes and 0.85 fold changes and 0.67 fold changes
same,Relative mRNA expression of Mrp2 in liver,"[2]; TPHP-L: 10 mg/kg, 35 d",0.71 fold changes and 1.09 fold changes and 0.57 fold changes
same,Relative mRNA expression of Mrp3 in liver,"[2]; TPHP-L: 10 mg/kg, 35 d",0.90 fold changes and 0.72 fold changes and 0.89 fold changes
same,Relative mRNA expression of Mrp4 in liver,"[2]; TPHP-L: 10 mg/kg, 35 d",0.86 fold changes and 0.84 fold changes and 0.91 fold changes
same,Relative mRNA expression of Ntcp in liver,"[2]; TPHP-L: 10 mg/kg, 35 d",1.52 fold changes and 1.66 fold changes and 1.26 fold changes
same,Relative mRNA expression of Scd1 in liver,"[2]; TPHP-L: 10 mg/kg, 35 d",0.40 fold changes and 0.59 fold changes and 0.35 fold changes
same,Relative mRNA expression of Srebp1c in liver,"[2]; TPHP-L: 10 mg/kg, 35 d",2.35 fold changes and 1.89 fold changes and 2.01 fold changes
same,"Expression of FXR-regulated lipogenesis genes (Srebp1c, Dgat2, Acly, Acc1) in liver (in words)",[2]; TPHP-exposed mice,up-regulated
same,Expression of Scd1 in the liver (in words),[2]; TPHP-exposure groups,significantly lower
same,"Expression of PXR and PPARγ target genes in the liver, except Scd1 (in words)",[2]; after TPHP exposure,not significantly different
same,"Expression of Cyp7a1 in liver, higher than in control group",[2]; both TPHP-L and TPHP-H groups,approximately 2 folds
